These results are taken from US8476197B2, “Aminopropenoates as fungicides” (priority 2009, dated 2013).

Marks after values point to notes of the source that are not given here.

For one data set the following is noted: pH 2.3.
Protocol: Measurement of logP values was performed according EEC directive 79/831 Annex V.A8 by HPLC (High Performance Liquid Chromatography) on reversed phase columns with the following methods:
^[a] measurement of LC-MS was done at pH 2.7 with 0.1% formic acid in water and with acetonitrile (contains 0.1% formic acid) as eluent with a linear gradient from 10% acetonitrile to 95% acetonitrile. ^[b] Measurement was done at pH 7.5 with 0.005 molar aqueous KH2PO4 buffer and acetonitrile as eluent. ^[c] Measurement was done at pH 2.3 with 0.1% (w/w) phosphoric acid and acetonitrile as eluent.
Turning to `CSc1ccccc1NC(=C(C#N)C(=O)OCC(C)C)c1cccnc1Cl` [Compound 347], the “Log P” value is on record as 4.15. The same measure, in the same setting: the value for `CCOC(=O)C(C#N)=C(NC(C)CSC)c1cccnc1C` (stereo not shown) [Compound 648] was 2.2; that for `CCOC(=O)C(C#N)=C(NC(C)C(C)C)c1cccnc1-c1cccc(Cl)c1` (stereo not shown) [Compound 1568] was 4.07; that for `CCOC(=O)C(C#N)=C(Nc1cc(F)ccc1F)c1cccnc1Cl` [Compound 1609] was 2.95. On to `COC(=O)C(C#N)=C(NCc1ccc(Cl)nc1)c1cccnc1Cl` [Compound 338], for which the “Log P” value is reported as 2.11.

Still in this data set, the particulars now being: pH 2.7.
`C#CC(C)NC(=C(C#N)C(=O)OC)c1cccnc1Cl` (stereo not shown) [Compound 1045]: the “Log P” value was 2.14^[a].

In the case of `CCOC(=O)C(C#N)=C(NC(C)CN(C)C)c1c(C)nn(C)c1Cl` (stereo not shown) [Compound 605], the lipophilicity (Log P) is 1.13^[a]. `CCOC(=O)C(C#N)=C(Nc1ccc(C#N)cc1)c1cccnc1Cl` [Compound 1265]: the “Log P” value was 2.73^[a]. On the same count and under the same terms, the result for `CCOC(=O)C(C#N)=C(NC(C)c1nccs1)c1cnn(C)c1Cl` (racemic) [Compound 1483] reads 2.42^[a]; that for `CCOC(=O)C(C#N)=C(NC(C)C1=NOCCO1)c1cccnc1Cl` (stereo not shown) [Compound 1117], 2.11^[a]; that for `CCOC(=O)C(C#N)=C(NC(C)c1nc(C)sc1C)c1cccnc1Cl` (racemic) [Compound 1552], 2.84^[a]. `CCOC(=O)C(C#N)=C(NC1CCC1)c1cnn(C)c1C(F)F` [Compound 1304]: the log partition coefficient (Log P) was 2.84^[a].

Take `CCOC(=O)C(C#N)=C(NC(C)C1CC1)c1cn(C)nc1C(C)F` (racemic) [Compound 895]: the “Log P” value was 2.84^[a]. On to `CCOC(=O)C(C#N)=C(NC(C)C(=O)NC)c1cnn(C)c1Cl` (stereo not shown) [Compound 1488], for which the “Log P” value is 1.63^[a]. The same measure, in the same setting: the result for `CCOC(=O)C(C#N)=C(NC(C)C(=O)NC)c1cccnc1C(F)(F)F` (stereo not shown) [Compound 706] reads 2.05^[a]. On to `CCOC(=O)C(C#N)=C(NCc1ccccc1SC)c1ccsc1Br` [Compound 535], for which the lipophilicity (Log P) is 4.01^[a]. Still for that read-out and setting: the result for `CCOC(=O)C(C#N)=C(NC(C)c1ccc(Cl)cc1)c1ncc(C(F)(F)F)cc1Cl` (stereo not shown) [Compound 351] reads 4.56^[a]. The same measure, in the same setting: the result for `CCOC(=O)C(C#N)=C(NC(C)c1nccs1)c1ccnc(SC)c1Cl` (stereo not shown) [Compound 1331] reads 3.53^[a]; that for `CCOC(=O)C(C#N)=C(NC(C)c1cccc(Cl)n1)c1cccnc1Cl` (stereo not shown) [Compound 1439], 3.2^[a]; that for `CCOC(=O)/C(C#N)=C(\NC(C)c1nccs1)c1sccc1Cl` (stereo not shown) [Compound 149], 3.09^[a].

As to `CCOC(=O)C(C#N)=C(NC(c1ccc(Cl)cc1)C(F)(F)F)c1cccnc1Cl` (racemic) [Compound 1261], the log partition coefficient (Log P) is 4.25^[a]. Same read-out and setting: the result for `CCOC(=O)C(C#N)=C(NC1CC1C(F)(F)F)c1cn(C)nc1C(F)F` (stereo not shown) [Compound 1147] reads 2.75^[a]. Same read-out and setting: the value for `COC(=O)C(C#N)=C(Nc1cccc(Cl)c1)c1sc(C)nc1C(F)(F)F` [Compound 518] was 3.53^[a]. Still for that read-out and setting: the result for `CCOC(=O)C(C#N)=C(NCc1ccc(F)cn1)c1sccc1Br` [Compound 200] reads 3.04^[a].

With `CCOC(=O)C(C#N)=C(Nc1ccccc1C(O)(C(F)(F)F)C(F)(F)F)c1cn(C)nc1C(F)F` [Compound 1427], the “Log P” value was 3.25^[a]. Still for that read-out and setting: the value for `CCOC(=O)C(C#N)=C(Nc1cccc2cn(C)nc12)c1cccnc1Cl` [Compound 1537] was 2.68^[a]; that for `CCOC(=O)C(C#N)=C(NCc1nccs1)c1ccsc1I` [Compound 161] was 2.68^[a]. Same read-out and setting: the value for `CCOC(=O)C(C#N)=C(NC(C)C(=O)NC)c1cn(C)nc1C(Cl)Cl` (stereo not shown) [Compound 1573] was 3.9^[a]. Take `CCOC(=O)C(C#N)=C(NC(C)C(=O)NC)c1scnc1Cl` (stereo not shown) [Compound 1476]: the lipophilicity (Log P) is 1.81^[a].

As to `COC(=O)C(C#N)=C(NC(C1CC1)C1CC1)c1cccnc1Cl` [Compound 765], the “Log P” value was 2.85^[a]. Still for that read-out and setting: the result for `CCOC(=O)C(C#N)=C(NC(C)(C)CSC)c1sc(C)nc1C(F)(F)F` [Compound 704] reads 3.62^[a]. The same measure, in the same setting: the value for `CCOCC(CC)NC(=C(C#N)C(=O)OC)c1cccnc1Cl` (stereo not shown) [Compound 625] was 2.76^[a]. Still for that read-out and setting: the result for `CCOC(=O)C(C#N)=C(NCc1nccs1)c1c(C(F)F)nn(C)c1Cl` [Compound 236] reads 2.4^[a]; that for `CCOC(=O)C(C#N)=C(NCC#N)c1sc(C)nc1C(F)(F)F` [Compound 790], 2.35^[a]. Take `CCOC(=O)C(C#N)=C(NC1(c2ccc(Cl)cc2)CC1)c1cn(C)nc1C(F)F` [Compound 1360]: the “Log P” value was 3.58^[a]. As to `CCOC(=O)C(C#N)=C(NC(C)c1nccs1)c1ccnn1C(F)F` (stereo not shown) [Compound 1644], the “Log P” value is 2.51^[a].

For `CCOC(=O)C(C#N)=C(NC(C)CN(C)C)c1cn(C)nc1C(F)(F)F` (stereo not shown) [Compound 602], the “Log P” value was 1.36^[a]. Same read-out and setting: the result for `COC(=O)C(C#N)=C(NC(C)c1ccc(Cl)cc1)c1cccnc1Cl` (stereo not shown) [Compound 332] reads 3.24^[a]. The same measure, in the same setting: the value for `CCOC(=O)C(C#N)=C(NCCOc1ccccc1Br)c1cn(C)nc1C(F)F` [Compound 1347] was 3.35^[a]; that for `CCNC(=O)C(C#N)=C(NC(C)c1ccncn1)c1cccnc1Cl` (stereo not shown) [Compound 1118] was 1.62^[a]; that for `CCOC(=O)C(C#N)=C(NC(C)(C)C=C(Cl)Cl)c1cn(C)nc1C(F)F` [Compound 1106] was 3.31^[a]. Consider `CCOC(=O)C(C#N)=C(NC1(c2ccccc2Cl)CC1)c1cn(C)nc1C(F)F` [Compound 1362], for which the “Log P” value was 3.35^[a]. On the same count and under the same terms, the result for `CCOC(=O)C(C#N)=C(NC(C)CN(C)C)c1ccsc1Br` (stereo not shown) [Compound 613] reads 1.44^[a]; that for `CC1CC(NC(=O)C(C#N)=C(NC(C)C(C)C)c2cccnc2Cl)C1` (stereo not shown) [Compound 1512], 4.01^[a]. Still for that read-out and setting: the result for `COC(=O)C(C#N)=C(NCc1ccccn1)c1sc(C)nc1C(F)(F)F` [Compound 134] reads 2.37^[a]. Same read-out and setting: the value for `C=CCOC(=O)C(C#N)=C(NC(C)C(C)C)c1cn(C)nc1C(F)F` (stereo not shown) [Compound 998] was 3.31^[a]; that for `COC(=O)C(C#N)=C(NC(CN1CCOCC1)C1CC1)c1cccnc1Cl` (stereo not shown) [Compound 121] was 1.38^[a]; that for `CCOC(=O)C(C#N)=C(NC(C)COc1ccccc1Cl)c1cccnc1Cl` (stereo not shown) [Compound 1164] was 3.78^[a]. Regarding `CCOC(=O)C(C#N)=C(NC(C)CF)c1ccncc1Cl` (stereo not shown) [Compound 750], the “Log P” value is 2.42^[a]. Regarding `CCOC(=O)C(C#N)=C(NC(C)c1ccccn1)c1ccnc(Cl)c1Br` (racemic) [Compound 1404], the lipophilicity (Log P) is 3.06^[a].

On to `C=CCOC(=O)C(C#N)=C(NCc1nccs1)c1cn(C)nc1C(F)F` [Compound 306], for which the “Log P” value was 2.25^[a]. With `C=CC(COCc1ccccc1)NC(=C(C#N)C(=O)OCC)c1sc(C)nc1C(F)(F)F` (stereo not shown) [Compound 692], the “Log P” value is 4.21^[a]. The same measure, in the same setting: the result for `CCOC(=O)C(C#N)=C(NC(C)C(C)C)c1ccnc(CC)c1Cl` (stereo not shown) [Compound 1399] reads 4.02^[a]. As to `CCOC(=O)C(C#N)=C(NC(C)Cc1ccccc1)c1cccnc1Cl` (stereo not shown) [Compound 1643], the lipophilicity (Log P) was 3.5^[a]. On the same count and under the same terms, the result for `CCOC(=O)C(C#N)=C(NCC#N)c1sccc1Br` [Compound 789] reads 2.33^[a]; that for `CCOC(=O)C(C#N)=C(Nc1cccc(SC)c1)c1sccc1C(F)(F)F` [Compound 482], 4.04^[a]. Same read-out and setting: the value for `CCOC(=O)C(C#N)=C(NC(C)C(N)=O)c1ccncc1F` (stereo not shown) [Compound 733] was 1.37^[a]; that for `CCOC(=O)C(C#N)=C(NC(C)C(N)=O)c1nc(Cl)ccc1Cl` (stereo not shown) [Compound 698] was 1.97^[a]; that for `CCOC(=O)C(C#N)=C(NC(C)C1CC1)c1cccnc1C(F)F` (racemic) [Compound 899] was 2.9^[a]. Still for that read-out and setting: the result for `CCOC(=O)C(C#N)=C(NC(C)C(=O)NC)c1cn(C)nc1C(F)(F)F` (stereo not shown) [Compound 636] reads 1.95^[a]; that for `CCOC(=O)C(C#N)=C(NC(C)C(C)C)c1ccnc(C)c1Cl` (stereo not shown) [Compound 1211], 3.51^[a]; that for `CCOC(=O)C(C#N)=C(NC(C)C(C)OC)c1scnc1Cl` (racemic) [Compound 1480], 2.94^[a]. As for `CCOC(=O)C(C#N)=C(Nc1ccc(C(C)C)cc1)c1cccnc1Cl` [Compound 1154], the lipophilicity (Log P) is 4.08^[a]. Turning to `CCOC(=O)C(C#N)=C(NC1CCS(=O)(=O)C1)c1cccnc1Cl` (stereo not shown) [Compound 1369], the “Log P” value was 1.84^[a]. On the same count and under the same terms, the result for `CCOC(=O)C(C#N)=C(NC1(c2ccccc2)CC1)c1cn(C)nc1C(F)F` [Compound 1364] reads 3.21^[a]. On the same count and under the same terms, the value for `CCOC(=O)C(C#N)=C(NC(Cc1ncccc1C)C(F)(F)F)c1cccnc1Cl` (racemic) [Compound 1262] was 3.04^[a]. Same read-out and setting: the result for `CCOC(=O)C(C#N)=C(NC(C)C(C)OC)c1cn(C)nc1C(Cl)Cl` (stereo not shown) [Compound 1576] reads 2.98^[a]; that for `CCOC(=O)C(C#N)=C(NC1(C)CCC1)c1cccnc1Cl` [Compound 1607], 3.11^[a]. In the case of `CCOC(=O)C(C#N)=C(NCc1ccccn1)c1sccc1Cl` [Compound 159], the “Log P” value is 2.56^[a].

As to `COC(=O)C(C#N)=C(NC(C)(C)CSC)c1sc(C)nc1C(F)(F)F` [Compound 702], the lipophilicity (Log P) is 3.27^[a]. Regarding `COC(=O)C(C#N)=C(NC(C)Cc1c[nH]c2ccccc12)c1sc(C)nc1C(F)(F)F` (racemic) [Compound 133], the “Log P” value is 3.6^[a]. Same read-out and setting: the value for `CCCc1nccc(C(NC(C)c2ccccn2)=C(C#N)C(=O)OCC)c1Cl` (racemic) [Compound 1397] was 3.29^[a].

Still in this data set, the particulars now being: pH 7.5.
Consider `CC(NC(=C(C#N)C(=O)OC1CCC1)c1cccnc1Cl)C1CC1` (mixture of isomers) [Compound 1245], for which the “Log P” value is listed as 3.46. As for `CSc1ccccc1NC(=C(C#N)C(=O)OCC(C)C)c1cccnc1Cl` [Compound 347], the “Log P” value was 3.94.

Take `CCOC(=O)C(C#N)=C(NC(C)CSC)c1cccnc1C` (stereo not shown) [Compound 648]: the “Log P” value amounted to 2.44. For the compound `CCOC(=O)C(C#N)=C(NC(C)C(C)C)c1cccnc1-c1cccc(Cl)c1` (stereo not shown) [Compound 1568], the lipophilicity (Log P) is 4.09. The same measure, in the same setting: the result for `CCOC(=O)C(C#N)=C(Nc1cc(F)ccc1F)c1cccnc1Cl` [Compound 1609] reads 2.83; that for `CC(NC(=C(C#N)C(=O)OC1COC1)c1cccnc1Cl)C1CC1` (stereo not shown) [Compound 1281], 2.31.

Consider `COC(=O)C(C#N)=C(NCc1ccc(Cl)nc1)c1cccnc1Cl` [Compound 338], for which the “Log P” value came to 2.1.
